From patent publication US8530183B2, “Zinc sensors for cellular imaging” (The Board of Regents of the University of Texas System, priority 2010, dated 2013)
“Also recorded” adds a separate entry of the source.

What was measured:
MIN6 cells = assay: Cellular uptake and membrane labeling followed by confocal laser scanning microscopy; assay type: cell-based, mouse
Protocol: FIGS. 4A-F. ZIMIR labels plasma membranes of intact living cells rapidly, non-invasively and stably. ZIMIR (1 μM) was added to MIN6 cells in FIBS buffer (containing ˜1 μM Zn^2+ enhance fluorescence intensity). Confocal images (Ex 488 nm, Em 510-550 nm) were subsequently acquired at 2 min (FIG. 4A), 5 min (FIG. 4B), 10 min (FIG. 4C), and 20 min (FIG. 4D). Cells were then washed with FIBS buffer three times and imaged again at 21 min (FIG. 4E), and 140 min (FIG. 4F).
Cell culture and ZIMIR imaging by wide field fluorescence microscopy. Details of cell culture are described below. For cell imaging, we cultured cells in 35 mm petri dishes with glass-bottoms (MatTek, Ashland, Mass.). To label cells with ZIMIR, cells were washed with a Secretion Assay Buffer (SAB) containing 114 mM NaCl, 4.7 mM KCl, 1.2 mM KH2PO4, 2.5 mM CaCl2, 1.16 mM MgSO4, 3 mM glucose, and 20 mM HEPES (pH 7.4). The DMSO stock solution of ZIMIR. (1-2 mM) diluted in a small volume of SAB was added to cells to a final concentration of 1 μM. Cells were then incubated at ˜25° C. for 20 min and washed with SAB before imaging. To image insulin/Zn^2+ secretion, we routinely included 10 μM of EDTA in SAB to chelate the residual Zn^2+ and to reduce the baseline fluorescence. In addition, DPAS (2-4 μM) was added to SAB in some experiments to better resolve the dynamics of oscillatory insulin release.
ZIMIR uptake and Zn2+ response in live cells. To examine the cellular uptake of ZIMIR, the inventors used a mouse insulinoma cell line, MIN6 (Miyazaki et al., 1990). When ZIMIR was incubated with cells at 1 μM concentration, it rapidly adhered to the cell surface of intact living cells (data not shown). In order to test the specificity and stability of membrane labeling, the inventors used confocal laser scanning microscopy (CLSM) to follow the cellular uptake and distribution of ZIMIR in MIN6 cells (FIGS. 4A-F). Within 5 min after probe addition, there was already a clear accumulation of ZIMIR along the plasma membrane (FIGS. 4A-B). By 20 min, the cellular uptake of ZIMIR appeared to reach completion (FIGS. 4C-D). […]

cultured mammalian cells = assay: Growth rate of ZIMIR-labeled cells versus unlabeled cells (cytotoxicity); assay type: cell-based; details: over the next several days after labeling
INS-1 cells = assay: Response of membrane-anchored ZIMIR to extracellular Zn2+ and decay upon Zn2+ washout; assay type: cell-based, rat
Protocol: FIGS. 5A-B. Membrane anchored ZIMIR reports changes of [Zn^2+]e. (FIG. 5A) Example fluorescence images (Excitation 488±7.5 nm, emission 530±20 nm) of INS-1 cells labeled with ZIMIR at different [Zn^2+]e. (FIG. 5B) Quantification of the average ZIMIR fluorescence intensity along the plasma membrane (IZIMIR(PM)).
(FIG. 7A) Time courses of IZIMIR(PM) decay after washing INS-1 cells (initially bathed in FIBS containing 1 μM Zn^2+) with HBS containing EDTA (10 μM) and DPAS (0-8 μM). (FIG. 7B) ZIMIR imaging of insulin/Zn^2+ release of MIN6 cells bathed in SAB containing EDTA (10 μM) and DPAS (4 μM). Time courses of IZIMIR(PM) fluctuation of four separate regions of interest (ROI 1-4) and example ZIMIR images at different time points were shown (a-e; arrow heads highlighting local ZIMIR increases in separate ROIs at different time).
To characterize the response of membrane anchored ZIMIR to changes of extracellular Zn^2+ concentration ([Zn^2+]), the inventors varied [Zn^2+]e from low nanomolar to micromolar, using Zn^2-1 buffers containing nitrilotriacetic acid (for [Zn^2+]e<100 nM) (Hirano et al., 2000) or histidine (for [Zn^2+]e. 100 nM) (Hauser and Tsien, 2007). After recording fluorescence images at different [Zn^2+]e levels, the inventors washed cells with a nominally Zn^2+ free SAB containing 0.2 mM DPAS and followed the decay of IZIMIR(PM).
Upon membrane depolarization, ZIMIR signal increased immediately and reached a plateau before it gradually declined (FIGS. 6E-F). Unexpectedly, however, in some occasions, ZIMIR signal remained elevated even after the inventors lowered KCl concentration to the resting level (5 mM) (FIG. 9). […] In INS-1 beta cells labeled with ZIMIR, after recording ZIMIR fluorescence in solutions containing ˜1 μM of Zn2+, the inventors perifused cells with a nominally Zn^2+-free solution containing only EDTA (10 μM), or with both EDTA (10 μM) and different concentrations of DPAS.

## CCCCCCCCCCCCN(CC(=O)O)Cc1c2oc3c(CN(CCCCCCCCCCCC)CC(=O)O)c(O)ccc3c(-c3cc(NCCN(CCc4ccccn4)Cc4ccccn4)ccc3C(=O)O)c-2ccc1=O [ZIMIR]
MIN6 cells; 1 μM ZIMIR, MIN6 cells, CLSM
  time to clear accumulation along the plasma membrane: ≤ 5 min
  time to completion of cellular uptake: ≤ 20 min
MIN6 cells; repetitive washings after labeling
  membrane retention upon washing: did not change membrane fluorescence intensity
Cultured mammalian cells
  growth rate of labeled cells / cytotoxicity: same growth rate as unlabeled cells; also recorded: very little cytotoxicity
INS-1 cells; INS-1 cells, EDTA 10 μM only, absence of DPAS
  decaying half lifetime of membrane ZIMIR signal upon Zn^2+ washout: 2.723 min
INS-1 cells; [Zn^2+]e varied from nanomolar to micromolar
  ZIMIR fluorescence along the plasma membrane (IZIMIR(PM)) versus [Zn^2+]e: stepwise increase with incremental level of [Zn^2+]e
